Among the data in patent US20230089867A1, “CYCLIC PENTAMER COMPOUNDS AS PROPROTEIN CONVERTASE SUBTILISIN/KEXIN TYPE 9 (PCSK9) INHIBITORS FOR THE TREATMENT OF METABOLIC DISORDER” (Novartis AG, priority 2018, published 2023) are Max % inhibition and IC50 values, retold here.

The test has as its target human PCSK9 (Homo sapiens, UniProt Q8NBP7). The experiment in a line: PCSK9 ligand binding TR-FRET assay (interference with binding of human PCSK9 to human LDLR). Particulars: for Max % inhibition: PCSK9 FRET assay, efficacy (Amax), 100% = 1 uM unlabeled human PCSK9, 0% = DMSO; for IC50: TR-FRET, human PCSK9 Alexa Fluor 647 / human LDLR extracellular domain-Europium Kryptate, read-out: PCSK9 FRET Assay IC50. On the procedure:
The PCSK9 binding of the compounds of the disclosure were measured using a time resolved fluorescence resonance energy transfer (TR-FRET) assay. This time resolved fluorescence resonance energy transfer (TR-FRET) assay measures the ability of a compound of the present disclosure to interfere with the binding of human PCSK9 to human LDLR, providing measures of both potency (IC50) and efficacy (Amax).
These solutions were pipetted into columns 1 and 11 of the compound plate. Threefold serial dilutions were generated in columns 2-10 and 12-20 of the compound plate by transferring 10 uL into 20 uL of DMSO. Columns 21 and 22 of the compound plate were negative controls containing DMSO alone.
An intermediate plate was generated in a Greiner V bottom plate by transferring 8 uL from each well of the master plate into a corresponding well containing 92 uL of assay buffer and mixing thoroughly.
A Proxi plate-low volume assay plate was used for the assay. […] For the positive control wells in columns 23 and 24 of the plate, 5 uL of unlabeled human PCSK9 was added at 4 uM in assay buffer containing 8% DMSO. Following a 30 minute incubation, 5 uL of 4 nM Human LDLR extracellular domain-Europium Kryptate was added and the mixture was incubated for an additional 2 hours.
The FRET ratio (FRET/Europium) was used for calculations.
Data is expressed as percent inhibition: (value−0%)/(100%−0%).
Background: In TR-FRET formats the signal depends on donor and acceptor labels being close together.

Structures are written as SMILES.

human PCSK9, sequence (Q8NBP7 153-692): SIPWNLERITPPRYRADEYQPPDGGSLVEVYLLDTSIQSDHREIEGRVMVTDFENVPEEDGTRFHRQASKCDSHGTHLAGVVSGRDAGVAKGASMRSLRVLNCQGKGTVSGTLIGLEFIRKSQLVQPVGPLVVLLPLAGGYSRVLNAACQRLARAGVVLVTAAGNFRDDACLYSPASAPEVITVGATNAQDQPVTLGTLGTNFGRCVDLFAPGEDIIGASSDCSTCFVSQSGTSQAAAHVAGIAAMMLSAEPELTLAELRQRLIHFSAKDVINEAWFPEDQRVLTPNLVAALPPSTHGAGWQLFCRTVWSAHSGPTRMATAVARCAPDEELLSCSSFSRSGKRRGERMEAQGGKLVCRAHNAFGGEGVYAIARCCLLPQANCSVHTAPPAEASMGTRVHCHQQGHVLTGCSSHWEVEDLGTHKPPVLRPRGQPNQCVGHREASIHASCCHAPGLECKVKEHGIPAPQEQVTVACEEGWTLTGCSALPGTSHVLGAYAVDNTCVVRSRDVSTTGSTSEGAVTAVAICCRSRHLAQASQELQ
human PCSK9, sequence (Q8NBP7 31-152 partner limits assumed): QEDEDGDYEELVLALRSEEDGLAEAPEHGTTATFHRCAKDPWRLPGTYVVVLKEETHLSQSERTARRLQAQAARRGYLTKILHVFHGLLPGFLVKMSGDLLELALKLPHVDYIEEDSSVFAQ

What is called IC50 is the midpoint of a concentration-inhibition curve. In the case of `COC[C@@H]1NC(=O)[C@H](C)N(Cc2c(OCC(F)(F)F)cc(Cl)cc2Oc2ccc(-c3cnc(CN4CCCC4)n3C)cc2)C(=O)C[C@@H](C)C(=O)N(C)[C@@H](C)CNC(=O)C[C@H](Cc2ccc(Cl)cc2)N(C)C1=O` [Compound 7, (2S,5S,8S,13S,16R)-1-(4-chloro-2-(4-(1-methyl-2-(pyrrolidin-1-ylmethyl)-1H-imidazol-5-yl)phenoxy)-6-(2,2,2-trifluoroethoxy)benzyl)-8-(4-chlorobenzyl)-5-(methoxymethyl)-2,7,13,14,16-pentamethyl-1,4,7,11,14-pentaazacyclooctadecane-3,6,10,15,18-pentaone], the Max % inhibition is reported as 93.00% and the IC50 turned out to be 9.9 nM.
As to `COC[C@@H]1NC(=O)[C@@H](COC)N(Cc2ccc(Cl)cc2Oc2ccc(-c3cnc(CN(C)C)n3C)cc2)C(=O)C[C@@H](Cc2ccccc2)C(=O)N(C)[C@H]2CCCC[C@@H]2NC(=O)C[C@H](Cc2ccc(Cl)cc2)N(C)C1=O` [Compound 8, (4S,7S,10R,14R,16aS,20aS)-14-benzyl-11-(4-chloro-2-(4-(2-((dimethylamino)methyl)-1-methyl-1H-imidazol-5-yl)phenoxy)benzyl)-4-(4-chlorobenzyl)-7,10-bis(methoxymethyl)-5,16-dimethylhexadecahydrobenzo[l][1,4,7,11,14]pentaazacyclooctadecine-2,6,9,12,15(3H)-pentaone], the Max % inhibition amounted to 101.12% and the IC50 was determined as 8.9 nM.
Regarding `COC[C@@H]1NC(=O)[C@H](C)N(Cc2ccccc2Oc2ccc(-c3cnc(CN(C)C)n3C)cc2)C(=O)C[C@@H](Cc2ccccc2)C(=O)N(C)[C@@H](C)CNC(=O)C[C@H](Cc2ccc(Cl)cc2)N(C)C1=O` [Compound 9, (2S,5S,8S,13S,16R)-16-benzyl-8-(4-chlorobenzyl)-1-(2-(4-(2-((dimethylamino)methyl)-1-methyl-1H-imidazol-5-yl)phenoxy)benzyl)-5-(methoxymethyl)-2,7,13,14-tetramethyl-1,4,7,11,14-pentaazacyclooctadecane-3,6,10,15,18-pentaone], the Max % inhibition is 98.16% and the IC50 was determined as 3.1 nM.
The matching figures for `COC[C@@H]1NC(=O)[C@H](CCC(=O)OC(C)(C)C)N(Cc2ccc(Cl)cc2Oc2ccc(-c3cnc(CN(C)C)n3C)cc2)C(=O)C[C@@H](Cc2ccccc2)C(=O)N(C)[C@@H](C)CNC(=O)C[C@H](Cc2ccc(Cl)cc2)N(C)C1=O` [Compound 10, tert-butyl 3-((2S,5S,8S,13S,16R)-16-benzyl-1-(4-chloro-2-(4-(2-((dimethylamino)methyl)-1-methyl-1H-imidazol-5-yl)phenoxy)benzyl)-8-(4-chlorobenzyl)-5-(methoxymethyl)-7,13,14-trimethyl-3,6,10,15,18-pentaoxo-1,4,7,11,14-pentaazacyclooctadecan-2-yl)propanoate]: 101.88% and 4.3 nM.
The matching figures for `COC[C@@H]1NC(=O)[C@H](CO)N(Cc2ccc(Cl)cc2Oc2ccc(-c3cnc(CN(C)C)n3C)cc2)C(=O)C[C@@H](Cc2ccccc2)C(=O)N(C)[C@@H](C)CNC(=O)C[C@H](Cc2ccc(Cl)cc2)N(C)C1=O` [Compound 11, (2S,5S,8S,13S,16R)-16-benzyl-1-(4-chloro-2-(4-(2-((dimethylamino)methyl)-1-methyl-1H-imidazol-5-yl)phenoxy)benzyl)-8-(4-chlorobenzyl)-2-(hydroxymethyl)-5-(methoxymethyl)-7,13,14-trimethyl-1,4,7,11,14-pentaazacyclooctadecane-3,6,10,15,18-pentaone]: 105.07% and 2.6 nM.
As to `COC[C@@H]1NC(=O)[C@@H](C)N(Cc2ccc(Cl)cc2Oc2ccc(-c3cnc(CN(C)C)n3C)cc2)C(=O)C[C@@H](Cc2ccccc2)C(=O)N(C)[C@@H](C)CNC(=O)C[C@H](Cc2ccc(Cl)cc2)N(C)C1=O` [Compound 12, (2R,5S,8S,13S,16R)-16-benzyl-1-(4-chloro-2-(4-(2-((dimethylamino)methyl)-1-methyl-1H-imidazol-5-yl)phenoxy)benzyl)-8-(4-chlorobenzyl)-5-(methoxymethyl)-2,7,13,14-tetramethyl-1,4,7,11,14-pentaazacyclooctadecane-3,6,10,15,18-pentaone], the Max % inhibition was found to be 98.09% and the IC50 was 74.1 nM.
Consider `COC[C@H]1C(=O)N(C)[C@@H](Cc2ccc(Cl)cc2)CC(=O)NC[C@H](C)N(C)C(=O)[C@H](Cc2ccccc2)CC(=O)N(Cc2ccc(Cl)cc2Oc2ccc(-c3cnc(CN(C)C)n3C)cc2)[C@H]2CC(=O)N1C2=O` [Compound 13, (2S,5S,10S,13R,17S)-13-benzyl-16-(4-chloro-2-(4-(2-((dimethylamino)methyl)-1-methyl-1H-imidazol-5-yl)phenoxy)benzyl)-5-(4-chlorobenzyl)-2-(methoxymethyl)-4,10,11-trimethyl-1,4,8,11,16-pentaazabicyclo[15.2.1]icosane-3,7,12,15,19,20-hexaone], for which the Max % inhibition was determined as 101.32% and the IC50 is 106 nM.
Regarding `COC[C@@H]1NC(=O)[C@H](C)N(Cc2ccc(Cl)cc2Oc2ccc(-c3cnc(CN4CCCC4)n3C)cc2)C(=O)C[C@@H](Cc2ccccc2)C(=O)N(C)[C@@H]2CCOC[C@H]2NC(=O)C[C@H](Cc2ccc(Cl)cc2)N(C)C1=O` [Compound 14, (4S,7S,10S,14R,16aR,20aS)-14-benzyl-11-(4-chloro-2-(4-(1-methyl-2-(pyrrolidin-1-ylmethyl)-1H-imidazol-5-yl)phenoxy)benzyl)-4-(4-chlorobenzyl)-7-(methoxymethyl)-5,10,16-trimethyltetradecahydro-1H-pyrano[3,4-l][1,4,7,11,14]pentaazacyclooctadecine-2,6,9,12,15(3H)-pentaone], the Max % inhibition came to 93.84% and the IC50 was 307 nM.
The like results for `COC[C@@H]1NC(=O)[C@H](C)N(Cc2ccc(Cl)cc2Oc2ccc(-c3cnc(CN4CCC4)n3C)cc2)C(=O)C[C@@H](Cc2ccccc2)C(=O)N(C)[C@H]2CCCC[C@@H]2NC(=O)C[C@H](Cc2ccc(Cl)cc2)N(C)C1=O` [Compound 16, (4S,7S,10S,14R,16aS,20aS)-11-(2-(4-(2-(azetidin-1-ylmethyl)-1-methyl-1H-imidazol-5-yl)phenoxy)-4-chlorobenzyl)-14-benzyl-4-(4-chlorobenzyl)-7-(methoxymethyl)-5,10,16-trimethylhexadecahydrobenzo[l][1,4,7,11,14]pentaazacyclooctadecine-2,6,9,12,15(3H)-pentaone] were, in that order, 92.71% and 1.7 nM.
For the molecule `COC[C@@H]1NC(=O)[C@H](CN2CCC2)N(Cc2ccc(Cl)cc2Oc2ccc(-c3cnc(CN(C)C)n3C)cc2)C(=O)C[C@@H](Cc2ccccc2)C(=O)N(C)[C@@H](C)CNC(=O)C[C@H](Cc2ccc(Cl)cc2)N(C)C1=O` [Compound 17, (2S,5S,8S,13S,16R)-2-(azetidin-1-ylmethyl)-16-benzyl-1-(4-chloro-2-(4-(2-((dimethylamino)methyl)-1-methyl-1H-imidazol-5-yl)phenoxy)benzyl)-8-(4-chlorobenzyl)-5-(methoxymethyl)-7,13,14-trimethyl-1,4,7,11,14-pentaazacyclooctadecane-3,6,10,15,18-pentaone], the Max % inhibition was found to be 81.08% and the IC50 was determined as 61.2 nM.
The like results for `COC[C@@H]1NC(=O)[C@H](C)N(Cc2ccc(Cl)cc2Oc2ccc(-c3cnc(CN(C)C)n3C)cc2)C(=O)C[C@@H](Cc2ccon2)C(=O)N(C)[C@H]2CCCC[C@@H]2NC(=O)C[C@H](Cc2ccc(Cl)cc2)N(C)C1=O` [Compound 18, (4S,7S,10S,14R,16aS,20aS)-11-(4-chloro-2-(4-(2-((dimethylamino)methyl)-1-methyl-1H-imidazol-5-yl)phenoxy)benzyl)-4-(4-chlorobenzyl)-14-(isoxazol-3-ylmethyl)-7-(methoxymethyl)-5,10,16-trimethylhexadecahydrobenzo[l][1,4,7,11,14]pentaazacyclooctadecine-2,6,9,12,15(3H)-pentaone] were, in that order, 86.12% and 1.1 nM.
The matching figures for `COC[C@@H]1NC(=O)[C@H](C)N(Cc2ccc(Cl)cc2Oc2ccc(-n3cnc(CN4CCCC4)c3C)cc2)C(=O)C[C@@H](Cc2ccccc2)C(=O)N(C)[C@H]2CCCC[C@@H]2NC(=O)C[C@H](Cc2ccc(Cl)cc2)N(C)C1=O` [Compound 19, (4S,7S,10S,14R,16aS,20aS)-14-benzyl-11-(4-chloro-2-(4-(5-methyl-4-(pyrrolidin-1-ylmethyl)-1H-imidazol-1-yl)phenoxy)benzyl)-4-(4-chlorobenzyl)-7-(methoxymethyl)-5,10,16-trimethylhexadecahydrobenzo[l][1,4,7,11,14]pentaazacyclooctadecine-2,6,9,12,15(3H)-pentaone]: 106.65% and 1.5 nM.
